Measured values published in patent publication US20200253877A1, “GEMCABENE, PHARMACEUTICALLY ACCEPTABLE SALTS THEREOF, COMPOSITIONS THEREOF AND METHODS OF USE THEREFOR” (NEUROBO PHARMACEUTICALS, INC., priority 2018, published 2020).

Key:
[1] = system: hepatic mRNA expression in STAM™ mice; assay: Murine STAM model of NASH-HCC: hepatic gene expression by quantitative RT-PCR; assay type: in vivo, mouse; conditions: 300 mg/kg, n = 8, STAM mice, normalized to non-treated group
Method: A study was performed to evaluate the efficacy of gemcabene calcium salt hydrate Crystal Form 1 having a PSD90 of 52 μm as measured by laser light diffraction, in treating non-alcoholic steatosis hepatitis (NASH) in the murine STAM™ model of NASH-HCC.
Briefly, two-day old neonatal C57BL/6 male mice were administered low-dose streptozotocin (STZ), and were subsequently fed a HFC diet from 4 weeks of age. In this model, the mice typically develop liver steatosis and diabetes, reaching steatohepatitis within 3 weeks, followed by cirrhosis within 8 weeks, and carcinoma within 16 weeks. In the current study, mice were administered daily oral gemcabene calcium salt hydrate Crystal Form 1 starting at week 6 of age and were sacrificed at week 9. […] These STAM™ groups were orally administered from week 6 one of the following: water-vehicle, gemcabene calcium salt hydrate Crystal Form 1 at 30, 100 and 300 mg/kg daily, or telmisartan ([…]®) 10 mg/kg daily. […] All groups were sacrificed at week 9. Vehicle, gemcabene calcium salt hydrate Crystal Form 1, or telmisartan were administered by oral gavage once daily.
Various gene expression markers of liver metabolism were evaluated by Real-Time PCR (RT-PCR) in all mouse groups. Total RNA was extracted from liver samples using RNAiso (Takara Bio, Japan) according to the manufacturer's instructions. […] of RNA was reverse-transcribed using a reaction mixture containing 4.4 mM MgCl2 (F. Hoffmann-La Roche, Switzerland), 40 U RNase inhibitor (Toyobo, Japan), 0.5 mM dNTP (Promega, USA), 6.28 μM random hexamer (Promega), 5×first strand buffer (Promega), 10 mM dithiothreitol (Invitrogen, USA) and 200 U MMLV-RT (Invitrogen) in a final volume of 20 μL. The reaction was carried out for 1 hour at 37° C., followed by 5 minutes at 99° C. Real-time PCR was performed using real-time PCR DICE and SYBR premix Taq (Takara Bio). To calculate the relative mRNA expression level, the expression of each gene was normalized to that of reference gene 36B4 (gene symbol: RplpO). Information of PCR-primer sets is described in Tables 37A-37C. Statistical analyses were performed using the Bonferroni Multiple Comparison Test on GraphPad Prism 6 (GraphPad Software Inc., USA). P values <0.05 were considered statistically significant. Results are expressed as mean±SD.
In order to calculate the relative mRNA expression level, the expression of each gene was normalized to that of the reference gene 36B4 (gene symbol: RplpO). The gene expression levels were measured by quantitative RT-PCR. Results were normalized with values for the vehicle-treated normal group. […] Gemcabene calcium salt hydrate Crystal Form 1 (PSD90=52 μm) modulated the mRNA expression of many hepatic genes that play a significant role in the liver homeostasis and injury.

[2] = system: STAM™ mice, a murine model of NASH-HCC; assay: Murine STAM model of NASH-HCC: whole blood, plasma and liver biochemistry; conditions: mean ± SD, n = 8; for Fasting blood glucose / Plasma insulin: Day 18 after 8 hours of fasting; for Liver free fatty acid / Liver hydroxyproline / Liver triglyceride / Non-fasting blood glucose / Plasma ApoC-III / Plasma CRP / Plasma adiponectin / Plasma alanine aminotransferase / Plasma alkaline phosphatase / Plasma aspartate aminotransferase / Plasma blood urea nitrogen / Plasma creatinine / Plasma gamma-glutamyl transferase / Plasma ketone body / Plasma leptin / Plasma total bilirubin / Plasma total cholesterol / Plasma triglyceride: at termination (Day 21)

CC(C)(CCCCOCCCCC(C)(C)C(=O)O)C(=O)O [gemcabene, 6-(5-carboxy-5-methyl-hexyloxy)-2,2-dimethyl-hexanoic acid]
MCP-1 gene expression (mean ± SD) [1]: 1.6 ± 0.7
MIP-1β gene expression (mean ± SD) [1]: 2.8 ± 1.4
MMP-2 gene expression (mean ± SD) [1]: 0.9 ± 0.2
NF-κB gene expression (mean ± SD) [1]: 0.8 ± 0.1
PNPLA3 gene expression (mean ± SD) [1]: 0.2 ± 0.2
SCD1 gene expression (mean ± SD) [1]: 0.4 ± 0.2
SREBP-1 gene expression (mean ± SD) [1]: 0.7 ± 0.1
Sulf-2 gene expression (mean ± SD) [1]: 3.3 ± 0.9
TIMP-1 gene expression (mean ± SD) [1]: 4.4 ± 2.1
TNF-α gene expression (mean ± SD) [1]: 1.9 ± 0.7
α-SMA gene expression (mean ± SD) [1]: 2.5 ± 0.7
Fasting blood glucose ([2]; 30 mg/kg PO QD): 437 ± 42 mg/dL
Plasma insulin ([2]; 30 mg/kg PO QD): 0.13 ± 0.04 ng/mL
Liver free fatty acid ([2]; 30 mg/kg PO QD): 35.1 ± 8.4 pEq/g liver
Liver hydroxyproline ([2]; 30 mg/kg PO QD): 0.66 ± 0.12 μg/mg total protein
Liver triglyceride ([2]; 30 mg/kg PO QD): 49.2 ± 8.6 mg/g liver
Non-fasting blood glucose ([2]; 30 mg/kg PO QD): 607 ± 48 mg/dL
Plasma ApoC-III ([2]; 30 mg/kg PO QD): 6.6 ± 0.8 gg/mL
Plasma CRP ([2]; 30 mg/kg PO QD): 2.5 ± 0.3 gg/mL
Plasma adiponectin ([2]; 30 mg/kg PO QD): 4.1 ± 0.9 gg/mL
Plasma alanine aminotransferase ([2]; 30 mg/kg PO QD): 41 ± 15 U/L
Plasma alkaline phosphatase ([2]; 30 mg/kg PO QD): 382 ± 78 U/L
Plasma aspartate aminotransferase ([2]; 30 mg/kg PO QD): 100 ± 44 U/L
Plasma blood urea nitrogen ([2]; 30 mg/kg PO QD): 25.0 ± 3.9 mg/dL
Plasma creatinine ([2]; 30 mg/kg PO QD): 0.1 ± 0.0 mg/dL
Plasma gamma-glutamyl transferase ([2]; 30 mg/kg PO QD): 1 ± 0 U/L
Plasma ketone body ([2]; 30 mg/kg PO QD): 9.43 ± 2.35 m M
Plasma leptin ([2]; 30 mg/kg PO QD): 3.1 ± 1.2 ng/mL
Plasma total bilirubin ([2]; 30 mg/kg PO QD): 0.2 ± 0.1 mg/dL
Plasma total cholesterol ([2]; 30 mg/kg PO QD): 194 ± 17 mg/dL
Plasma triglyceride ([2]; 30 mg/kg PO QD): 319 ± 198 mg/dL
Fasting blood glucose ([2]; 100 mg/kg PO QD): 441 ± 46 mg/dL
Plasma insulin ([2]; 100 mg/kg PO QD): 0.17 ± 0.06 ng/mL
Liver free fatty acid ([2]; 100 mg/kg PO QD): 38.4 ± 8.5 pEq/g liver
Liver hydroxyproline ([2]; 100 mg/kg PO QD): 0.74 ± 0.38 μg/mg total protein
Liver triglyceride ([2]; 100 mg/kg PO QD): 58.4 ± 14.5 mg/g liver
Non-fasting blood glucose ([2]; 100 mg/kg PO QD): 653 ± 53 mg/dL
Plasma ApoC-III ([2]; 100 mg/kg PO QD): 6.0 ± 2.5 gg/mL
Plasma CRP ([2]; 100 mg/kg PO QD): 1.9 ± 0.3 gg/mL
Plasma adiponectin ([2]; 100 mg/kg PO QD): 4.1 ± 0.5 gg/mL
Plasma alanine aminotransferase ([2]; 100 mg/kg PO QD): 27 ± 7 U/L
Plasma alkaline phosphatase ([2]; 100 mg/kg PO QD): 642 ± 167 U/L
Plasma aspartate aminotransferase ([2]; 100 mg/kg PO QD): 88 ± 32 U/L
Plasma blood urea nitrogen ([2]; 100 mg/kg PO QD): 29.8 ± 4.3 mg/dL
Plasma creatinine ([2]; 100 mg/kg PO QD): 0.1 ± 0.1 mg/dL
Plasma gamma-glutamyl transferase ([2]; 100 mg/kg PO QD): 1 ± 0 U/L
Plasma ketone body ([2]; 100 mg/kg PO QD): 5.75 ± 3.24 m M
Plasma leptin ([2]; 100 mg/kg PO QD): 4.3 ± 1.2 ng/mL
Plasma total bilirubin ([2]; 100 mg/kg PO QD): 0.3 ± 0.2 mg/dL
Plasma total cholesterol ([2]; 100 mg/kg PO QD): 228 ± 37 mg/dL
Plasma triglyceride ([2]; 100 mg/kg PO QD): 191 ± 57 mg/dL
Fasting blood glucose ([2]; 300 mg/kg PO QD): 407 ± 15 mg/dL
Plasma insulin ([2]; 300 mg/kg PO QD): 0.13 ± 0.04 ng/mL
Liver free fatty acid ([2]; 300 mg/kg PO QD): 46.0 ± 5.5 pEq/g liver
Liver hydroxyproline ([2]; 300 mg/kg PO QD): 0.70 ± 0.10 μg/mg total protein
Liver triglyceride ([2]; 300 mg/kg PO QD): 56.0 ± 13.9 mg/g liver
Non-fasting blood glucose ([2]; 300 mg/kg PO QD): 638 ± 63 mg/dL
Plasma ApoC-III ([2]; 300 mg/kg PO QD): 6.2 ± 0.7 gg/mL
Plasma CRP ([2]; 300 mg/kg PO QD): 1.9 ± 0.4 gg/mL
Plasma adiponectin ([2]; 300 mg/kg PO QD): 4.9 ± 0.5 gg/mL
Plasma alanine aminotransferase ([2]; 300 mg/kg PO QD): 32 ± 14 U/L
Plasma alkaline phosphatase ([2]; 300 mg/kg PO QD): 794 ± 57 U/L
Plasma aspartate aminotransferase ([2]; 300 mg/kg PO QD): 147 ± 122 U/L
Plasma blood urea nitrogen ([2]; 300 mg/kg PO QD): 30.1 ± 5.8 mg/dL
Plasma creatinine ([2]; 300 mg/kg PO QD): 0.2 ± 0.1 mg/dL
Plasma gamma-glutamyl transferase ([2]; 300 mg/kg PO QD): 1 ± 0 U/L
Plasma ketone body ([2]; 300 mg/kg PO QD): 5.68 ± 3.08 m M
Plasma leptin ([2]; 300 mg/kg PO QD): 3.2 ± 1.1 ng/mL
Plasma total bilirubin ([2]; 300 mg/kg PO QD): 0.3 ± 0.1 mg/dL
Plasma total cholesterol ([2]; 300 mg/kg PO QD): 234 ± 45 mg/dL
Plasma triglyceride ([2]; 300 mg/kg PO QD): 149 ± 32 mg/dL
